Among the data in PubChem BioAssay AID256 (DTP/NCI, 2004) are T/C values, retold here.

This assay concerns CD2F1 mice, L1210 leukemia ip, survival T/C. Kind of assay: NCI In Vivo Anticancer Drug Screen. Data for tumor model L1210 Leukemia (intraperitoneal) in CD2F1 (CDF1) mice. The settings on record: higher = longer survival. An outline of the steps:
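Read-out first: treated-group measurement over vehicle-control measurement, expressed as a ratio. Animals bore a transplanted tumor line and were dosed with compound or vehicle.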

Setting [1] is: endpoint: mean survival time, dose: 100.0 mg/kg/injection, schedule: Q04DX003 (ip), vehicle: Klucel (hydroxypropylcellulose) (HPC).
[2] abbreviates: endpoint: mean survival time, dose: 200.0 mg/kg/injection, schedule: Q04DX003 (ip), vehicle: Klucel (hydroxypropylcellulose) (HPC).
Setting [3] is: endpoint: mean survival time, dose: 400.0 mg/kg/injection, schedule: Q04DX003 (ip), vehicle: Klucel (hydroxypropylcellulose) (HPC).
The mark [4] stands for this setting: endpoint: mean survival time, dose: 100.0 mg/kg/injection, schedule: Q04DX003 (ip), vehicle: saline with Tween-80.
Setting [5] is: endpoint: mean survival time, dose: 200.0 mg/kg/injection, schedule: Q04DX003 (ip), vehicle: saline with Tween-80.
Where [6] appears, read: endpoint: mean survival time, dose: 400.0 mg/kg/injection, schedule: Q04DX003 (ip), vehicle: saline with Tween-80.
[7] abbreviates: endpoint: mean survival time, dose: 25.0 mg/kg/injection, schedule: Q01DX009 (ip), vehicle: other.
Where [8] appears, read: endpoint: mean survival time, dose: 50.0 mg/kg/injection, schedule: Q01DX009 (ip), vehicle: other.
Setting [9] is: endpoint: mean survival time, dose: 100.0 mg/kg/injection, schedule: Q01DX009 (ip), vehicle: other.
The mark [10] stands for this setting: endpoint: mean survival time, dose: 100.0 mg/kg/injection, schedule: Q04DX003 (ip), vehicle: other.
The mark [11] stands for this setting: endpoint: mean survival time, dose: 200.0 mg/kg/injection, schedule: Q04DX003 (ip), vehicle: other.
The mark [12] stands for this setting: endpoint: mean survival time, dose: 400.0 mg/kg/injection, schedule: Q04DX003 (ip), vehicle: other.
The mark [13] stands for this setting: endpoint: mean survival time, dose: 100.0 mg/kg/injection, schedule: Q04DX002 (ip), vehicle: saline with Tween-80.
Where [14] appears, read: endpoint: mean survival time, dose: 200.0 mg/kg/injection, schedule: Q04DX002 (ip), vehicle: saline with Tween-80.

Values joined by “and” are separate entries in the source; they are usually repeats but may differ in a detail not shown here. Equal values may be shown once. Inconclusive results and toxic doses are left out.

As to `CC(C)(C)CC(C)(C)c1ccc(OCCOc2ccc(C(=O)Nc3ccc([N+](=O)[O-])cc3)cc2)cc1`, the T/C is 87 % of control (endpoint: mean survival time, dose: 100.0 mg/kg/injection, schedule: Q01DX009 (ip), vehicle: Klucel (hydroxypropylcellulose) (HPC)); 96 % of control under setting [1]; 105 % of control (endpoint: mean survival time, dose: 200.0 mg/kg/injection, schedule: Q01DX009 (ip), vehicle: Klucel (hydroxypropylcellulose) (HPC)); 98 % of control under setting [2]; 94 % of control under setting [3].
On to `Cc1c[n+]([O-])ccc1Br`, for which the T/C by setting is: (endpoint: mean survival time, dose: 25.0 mg/kg/injection, schedule: Q01DX009 (ip), vehicle: water) 94 % of control; (endpoint: mean survival time, dose: 50.0 mg/kg/injection, schedule: Q01DX009 (ip), vehicle: water) 100 % of control; (endpoint: mean survival time, dose: 100.0 mg/kg/injection, schedule: Q01DX009 (ip), vehicle: water) 88 % of control.
Consider `COC(=O)CCCC1CCC(=NNc2ccc([N+](=O)[O-])cc2[N+](=O)[O-])CC1` (centres undefined), for which the T/C by setting is: under setting [4], 86 % of control; under setting [5], 96 % of control; under setting [6], 93 % of control.
With `O=c1cc2c(=O)oc3cc(O)c(O)oc3c2c(O)c1O`, the T/C is, setting by setting: (endpoint: mean survival time, dose: 100.0 mg/kg/injection, schedule: Q01DX001 (ip), vehicle: saline) 101 % of control; (endpoint: mean survival time, dose: 200.0 mg/kg/injection, schedule: Q01DX001 (ip), vehicle: saline) 98 % of control; (endpoint: mean survival time, dose: 400.0 mg/kg/injection, schedule: Q01DX001 (ip), vehicle: saline) 98 % of control.
For `CC(C)CCCC(C)C1CCC2C3CC=C4CC(OCCO)CCC4(C)C3CCC12C` (centres undefined), the T/C is, setting by setting: under setting [7], 104 % of control; under setting [8], 101 % of control; under setting [9], 87 % of control.
For `COc1ccc(/C=C(/c2ccccc2)[Si](C)(C)C)cc1`, the T/C reads like this: under setting [10], 91 % of control; under setting [11], 96 % of control; under setting [12], 94 % of control.
For `CCOC(=O)/C=C/C(=O)[O-].CCOC(=O)/C=C/C(=O)[O-].NC1CCCCC1N.[Pt+4]`, the T/C (endpoint: median survival time, dose: 3.12 mg/kg/injection, schedule: Q04DX003 (ip), vehicle: saline with Tween-80) was 101 % of control and 103 % of control; the T/C (endpoint: median survival time, dose: 6.25 mg/kg/injection, schedule: Q04DX003 (ip), vehicle: saline with Tween-80) is 103 % of control and 108 % of control; the T/C (endpoint: median survival time, dose: 12.5 mg/kg/injection, schedule: Q04DX003 (ip), vehicle: saline with Tween-80) was 113 % of control and 112 % of control; the T/C (endpoint: median survival time, dose: 25.0 mg/kg/injection, schedule: Q04DX003 (ip), vehicle: saline with Tween-80) was 123 % of control; the T/C (endpoint: median survival time, dose: 100.0 mg/kg/injection, schedule: Q04DX003 (ip), vehicle: saline with Tween-80) was 164 % of control; the T/C (endpoint: median survival time, dose: 200.0 mg/kg/injection, schedule: Q04DX003 (ip), vehicle: saline with Tween-80) was 166 % of control and 333 % of control.
`CN(CC(=O)O)C(=O)c1cc2ccccc2[nH]1`: the T/C is, setting by setting: (endpoint: mean survival time, dose: 37.5 mg/kg/injection, schedule: Q04DX002 (ip), vehicle: saline with Tween-80) 101 % of control; (endpoint: mean survival time, dose: 75.0 mg/kg/injection, schedule: Q04DX002 (ip), vehicle: saline with Tween-80) 89 % of control; (endpoint: mean survival time, dose: 150.0 mg/kg/injection, schedule: Q04DX002 (ip), vehicle: saline with Tween-80) 93 % of control.
Turning to `Oc1ccc(C(c2ccc(O)cc2)C(Cl)(Cl)Cl)cc1`, the T/C by setting is: under setting [1], 101 % of control; under setting [2], 101 % of control; under setting [3], 93 % of control.
Regarding `CCc1c(Br)c(CC)c(Br)c(CC)c1Br`, the T/C runs as follows: under setting [4], 98 % of control; under setting [5], 97 % of control; under setting [6], 98 % of control.
For `CC(=O)OCC1OC(N=C=S)C(OC(C)=O)C(OC(C)=O)C1OC(C)=O` (centres undefined), under “endpoint: mean survival time, dose: 50.0 mg/kg/injection, schedule: Q01DX009 (ip), vehicle: saline with Tween-80”, the T/C is 115 % of control.
For `O=C(NCCCCC(NC(=O)OCc1ccccc1)C(=O)ON1C(=O)CCC1=O)OCc1ccccc1` (centres undefined), the T/C is 96 % of control (endpoint: mean survival time, dose: 12.5 mg/kg/injection, schedule: Q01DX009 (ip), vehicle: other); 86 % of control under setting [7]; 90 % of control under setting [8]; 94 % of control under setting [9]; 97 % of control (endpoint: mean survival time, dose: 200.0 mg/kg/injection, schedule: Q01DX009 (ip), vehicle: other).
For `O.[Cl][Pt].[S-]CCN1CCOCC1`, the T/C (endpoint: mean survival time, dose: 12.5 mg/kg/injection, schedule: Q04DX003 (ip), vehicle: distilled water + Tween-80) is 96 % of control; the T/C (endpoint: mean survival time, dose: 25.0 mg/kg/injection, schedule: Q04DX003 (ip), vehicle: distilled water + Tween-80) was 98 % of control; the T/C (endpoint: mean survival time, dose: 50.0 mg/kg/injection, schedule: Q04DX003 (ip), vehicle: distilled water + Tween-80) was 102 % of control; the T/C (endpoint: mean survival time, dose: 100.0 mg/kg/injection, schedule: Q04DX003 (ip), vehicle: distilled water + Tween-80) is 98 % of control; the T/C (endpoint: mean survival time, dose: 200.0 mg/kg/injection, schedule: Q04DX003 (ip), vehicle: distilled water + Tween-80) was 96 % of control.
For the compound `C[N+]1(C)CCS(=O)(=O)CC1`, the T/C reads like this: under setting [4], 94 % of control; under setting [5], 95 % of control; under setting [6], 86 % of control.
As to `CC(=[C-]C(=O)O)C(=O)O.[NH-]C1CCCCC1[NH-].[Pt]`, the T/C (endpoint: median survival time, dose: 6.25 mg/kg/injection, schedule: Q04DX003 (ip), vehicle: saline) was 100 % of control; the T/C (endpoint: median survival time, dose: 12.5 mg/kg/injection, schedule: Q04DX003 (ip), vehicle: saline) was 100 % of control; the T/C (endpoint: median survival time, dose: 25.0 mg/kg/injection, schedule: Q04DX003 (ip), vehicle: saline) was 102 % of control; the T/C (endpoint: median survival time, dose: 50.0 mg/kg/injection, schedule: Q04DX003 (ip), vehicle: saline) was 108 % of control; the T/C (endpoint: median survival time, dose: 100.0 mg/kg/injection, schedule: Q04DX003 (ip), vehicle: saline) was 112 % of control.
With `Cc1cccc(C(=O)C(=O)c2cccc(C)c2C)c1C`, the T/C (endpoint: mean survival time, dose: 75.0 mg/kg/injection, schedule: Q01DX001 (ip), vehicle: other) was 93 % of control; the T/C (endpoint: mean survival time, dose: 150.0 mg/kg/injection, schedule: Q01DX001 (ip), vehicle: other) is 93 % of control; the T/C (endpoint: mean survival time, dose: 300.0 mg/kg/injection, schedule: Q01DX001 (ip), vehicle: other) was 100 % of control.
`O=C(CCCC(=O)c1ccccc1)OC1(c2ccccc2)CCCC(=O)O1` (centres undefined): the T/C (endpoint: mean survival time, dose: 50.0 mg/kg/injection, schedule: Q04DX002 (ip), vehicle: saline with Tween-80) is 98 % of control; the T/C under setting [13] was 98 % of control; the T/C under setting [14] was 94 % of control.
Consider `OCC1OC(Nc2ncnc3snnc23)C(O)C1O` (centres undefined), for which the T/C (endpoint: mean survival time, dose: 200.0 mg/kg/injection, schedule: Q04DX003 (ip), vehicle: saline) was 157 % of control and the T/C (endpoint: mean survival time, dose: 400.0 mg/kg/injection, schedule: Q04DX003 (ip), vehicle: saline) is 173 % of control.
As for `Nc1ncnc2c1ncn2C(C=O)OC(C=O)CO` (centres undefined), the T/C (endpoint: mean survival time, dose: 35.0 mg/kg/injection, schedule: Q01DX001 (ip), vehicle: saline) was 117 % of control.
Consider `O=C(Nc1cccc(O)c1)OCCCCl`, for which the T/C was 98 % of control under setting [4], 98 % of control under setting [5] and 96 % of control under setting [6].
In the case of `CC(C(O)c1ccc(Br)cc1)C(O)(C(F)(F)F)C(F)(F)F` (centres undefined), the T/C reads like this: under setting [10], 113 % of control; under setting [11], 107 % of control; under setting [12], 100 % of control.
Regarding `CCOC(=O)CCN(CCC(=O)OCC)Cc1ccccc1`, the T/C by setting is: under setting [13], 112 % of control; under setting [14], 100 % of control; (endpoint: mean survival time, dose: 400.0 mg/kg/injection, schedule: Q04DX002 (ip), vehicle: saline with Tween-80) 103 % of control.
Consider `O=C(O/N=C(\C(=O)c1ccccc1)c1ccccc1)c1ccc(Br)cc1`, for which the T/C reads like this: (endpoint: mean survival time, dose: 100.0 mg/kg/injection, schedule: Q01DX001 (ip), vehicle: saline with Tween-80) 90 % of control; (endpoint: mean survival time, dose: 200.0 mg/kg/injection, schedule: Q01DX001 (ip), vehicle: saline with Tween-80) 90 % of control.
